Data: patent US4603128A, “Mineralocorticoid hormone antagonists” (priority 1984, dated 1986)
Where two headings read alike, the source gives them in different places.

Experiments:
adrenalectomized rat = assay: Mineralocorticoid antagonism in vivo, adrenalectomized rat assay (urinary Na/K); details: for In vivo antagonist activity compared with corresponding 7α-propionylthio derivative (Controls A, B, C, D): same substituents at C-21
Method: The bioassay for anti-mineralocorticoid activity was carried out as described for the assay of mineralocorticoid agonist activity by Ulick, Land and Chu, (Endocrinology 99:619, 1976), except that the control group received 1 μg of aldosterone per 100 g body weight and the experimental group received the test substance in addition. All results were expressed as ratio of control urinary Na/K to treatment urinary Na/K. The minimum effective dose of antagonist was defined as that amount of test substance required to block one-half of the effect of 1 μg. aldosterone/100 g body weight as measured by the ratio of control: treatment urinary Na/K.

[1] = system: mineralocorticoid receptor of mammalian kidney; assay: Mineralocorticoid receptor affinity (competition with 3H-aldosterone); format: binding; details: for Corticosteroid Receptor Affinity % Mineralocorticoid: amount of aldosterone vs amount of steroid for 50% reduction in binding of 1.3×10^-9 M 3H-aldosterone, kidney cytosol, aldosterone = 100; for Affinity Mineralocorticoid:Androgen Ratio: ratio of mineralocorticoid to androgen receptor affinity (therapeutic index)
Method: Each assay tube contained 250 μl cytosol solution and 1,2-^3 H-aldosterone at a final steroid concentration of 1.3×10^-9 M. Standard curves were prepared in the range of 0.1 to 100 ng aldosterone and non-specific binding of 10^-5 M aldosterone was subtracted. The amount of steroid ligand required to effect 50% reduction in the binding of labeled aldosterone compared to the amount of aldosterone to effect the same reduction was expressed as a percentage.

[2] = subcutaneous, with 1 μg aldosterone per 100 g body weight, dose reducing urinary Na/K effect to one half, inactive = no antagonist activity at 250 μg/100 g
[3] = Rattus norvegicus, sc, subcutaneous, with 1 μg aldosterone per 100 g body weight, dose reducing urinary Na/K effect to one half, inactive = no antagonist activity at 250 μg/100 g, read-out: Mineralocorticoid antagonism Minimum effective dose
[4] = oral route, adrenalectomized rat, read-out: Mineralocorticoid antagonism Minimum effective dose oral

SMILES | Corticosteroid Receptor Affinity % Mineralocorticoid [1] | Affinity Mineralocorticoid:Androgen Ratio [1] | ED50 (adrenalectomized rat; [3]) | other results
CCCCCCC(=O)OCC(=O)[C@H]1CC[C@H]2[C@@H]3[C@H](SC(=O)CC)CC4=CC(=O)CC[C@]4(C)[C@H]3CC[C@]12C [Control D, 7α-Propionylthio-21-heptanoyloxy-4-pregnene-3,20-dione, reference compound] |  |  |  | Mineralocorticoid antagonism Minimum effective dose (adrenalectomized rat; [2]): inactive
CC(=O)OCC(=O)[C@H]1CC[C@H]2[C@@H]3[C@H](SC(C)=O)CC4=CC(=O)CC[C@]4(C)[C@H]3CC[C@]12C [Example 3, 7α-Acetylthio-21-acetoxy-4-pregnene-3,20-dione] | 65% | 325 | 0.25 mg/kg | Affinity ratio index compared with spironolactone ([1]; mineralocorticoid:androgen affinity ratio relative to spironolactone): ~40 times; Dose of spironolactone relative to compound required for equivalent mineralocorticoid antagonist effect, oral (adrenalectomized rat; oral route): four-fold; ED50 (adrenalectomized rat; [4]): 2.5 mg/kg; In vivo antagonist activity compared with corresponding 7α-propionylthio derivative (Controls A, B, C, D) (adrenalectomized rat): always more active; Effectiveness relative to spironolactone, subcutaneous (adrenalectomized rat; subcutaneous route): 10 times; Mineralocorticoid antagonism Minimum effective dose (adrenalectomized rat; [2]): 25 μg/100 g
CCC(=O)S[C@@H]1CC2=CC(=O)CC[C@]2(C)[C@H]2CC[C@]3(C)[C@@H](C(C)=O)CC[C@H]3[C@H]12 [Control A, 7α-Propionylthio-4-pregnene-3,20-dione, reference compound] |  |  | 2 mg/kg | 
CC(=O)OCC(=O)[C@@]1(O)CC[C@H]2[C@H]3[C@H]([C@@H](O)C[C@@]21C)[C@@]1(C)CCC(=O)C=C1C[C@H]3SC(C)=O [Control E, 7α-Acetylthio-21-acetoxy-11β-dihydroxy-4-pregnene-3,20-dione, reference compound] |  |  |  | Mineralocorticoid antagonism Minimum effective dose (adrenalectomized rat; [2]): inactive
CCCC(=O)OCC(=O)[C@H]1CC[C@H]2[C@@H]3[C@H](SC(=O)CC)CC4=CC(=O)CC[C@]4(C)[C@H]3CC[C@]12C [Control C, 7α-Propionylthio-21-butyroxy-4-pregnene-3,20-dione, reference compound] |  |  | 1.5 mg/kg | 
CC(=O)S[C@@H]1CC2=CC(=O)CC[C@]2(C)[C@H]2CC[C@]3(C)[C@@H](C(C)=O)CC[C@H]3[C@H]12 [Example 1, 7α-Acetylthio-4-pregnene-3,20-dione] | 43% | 172 | 1 mg/kg | In vivo antagonist activity compared with corresponding 7α-propionylthio derivative (Controls A, B, C, D) (adrenalectomized rat): always more active
CCCC(=O)OCC(=O)[C@H]1CC[C@H]2[C@@H]3[C@H](SC(C)=O)CC4=CC(=O)CC[C@]4(C)[C@H]3CC[C@]12C [Example 5] | 60% | 300 | 0.5 mg/kg | In vivo antagonist activity compared with corresponding 7α-propionylthio derivative (Controls A, B, C, D) (adrenalectomized rat): always more active
C[C@]12CCC(=O)C=C1CC[C@@H]1[C@@H]2[C@@H](O)C[C@]2(C=O)[C@@H](C(=O)CO)CC[C@@H]12 [Aldosterone, reference compound] | 100% |  |  | 
CCCCC(=O)OCC(=O)[C@H]1CC[C@H]2[C@@H]3[C@H](SC(C)=O)CC4=CC(=O)CC[C@]4(C)[C@H]3CC[C@]12C [Example 6] | 68% | 340 | 1.5 mg/kg | 
CC(=O)S[C@@H]1CC2=CC(=O)CC[C@]2(C)[C@H]2CC[C@]3(C)[C@@H](C(=O)COC(=O)C(C)(C)C)CC[C@H]3[C@H]12 [Example 8] | 45% | 300 | 0.75 mg/kg | 
CC(=O)S[C@@H]1CC2=CC(=O)CC[C@]2(C)[C@H]2CC[C@@]3(C)[C@@H](CC[C@@]34CCC(=O)O4)[C@H]12 [Spironolactone, spironolactone, reference compound] | 18% |  | 2.5 mg/kg | ED50 (adrenalectomized rat; [4]): 10 mg/kg; Mineralocorticoid antagonism Minimum effective dose (adrenalectomized rat; [2]): 250 μg/100 g
CCC(=O)OCC(=O)[C@H]1CC[C@H]2[C@@H]3[C@H](SC(C)=O)CC4=CC(=O)CC[C@]4(C)[C@H]3CC[C@]12C [Example 4] | 38% | 190 | 1 mg/kg | 
CC(=O)S[C@@H]1CC2=CC(=O)CC[C@]2(C)[C@H]2CC[C@]3(C)[C@@H](C(=O)CO)CC[C@H]3[C@H]12 [Example 2, 7α-Acetylthio-21-hydroxy-4-pregnene-3,20-dione] | 35% | 175 | 0.75 mg/kg | 
CCC(=O)S[C@@H]1CC2=CC(=O)CC[C@]2(C)[C@H]2CC[C@]3(C)[C@@H](C(=O)COC(C)=O)CC[C@H]3[C@H]12 [Control B, 7α-Propionylthio-21-acetoxy-4-pregnene-3,20-dione, reference compound] |  |  | 1 mg/kg | 
CCCCCCC(=O)OCC(=O)[C@H]1CC[C@H]2[C@@H]3[C@H](SC(C)=O)CC4=CC(=O)CC[C@]4(C)[C@H]3CC[C@]12C [Example 7] | 27% | 180 | 0.75 mg/kg | In vivo antagonist activity compared with corresponding 7α-propionylthio derivative (Controls A, B, C, D) (adrenalectomized rat): always more active
